IC50 data for 13 compounds are collected here from US5124455A, “Oxime-carbamates and oxime-carbonates as bronchodilators and anti-inflammatory agents” (American Home Products Corporation, priority 1990, dated 1992).

In the test the test system is PDE IV. Put plainly: inhibition of PDE IV isolated from canine trachea (cAMP metabolism). The test is classed as biochemical. The following applies: PDE IV from canine tracheal muscle; 1 μM 3H-cAMP; 10 μM CI-930; 30° C., pH 7.8; reduction expressed as percentage of that by 10 μM rolipram. The method, then: The following assay is employed to assess the ability of the compounds of the invention to inhibit PDE IV.
A solution containing PDE IV is prepared from canine tracheal muscle as follows:
The dog is euthanized with an overdose of beuthanasia while under anesthesia induced by a 33 mg/kg IV bolus of Nembutal. The trachealis muscle is removed, cleaned of connective tissue, and minced thoroughly. Three to four grams of tissue is then homogenized in Tris-HCl buffer (pH 7.8) using a Polytron. The homogenate is then centrifuged at 25,000×g (4° C.) for 30 minutes. The supernatant is decanted and filtered through four layers of gauze, and applied to a 40 cm×2 cm DEAE-Sepharose column that is equilibrated with Tris-HCl buffer (pH 7.8). The column is then washed with an additional 240 mL of buffer to remove unbound proteins. PDE is eluted using 450 mL of Tris-HCl buffer containing a linear gradient of 0.0-1.0M Na-acetate (80 mL/hr), and 7.5 mL fractions are collected. Each fraction is assayed for cAMP- and cGMP-metabolizing PDE activity. Fractions eluting at approximately 0.6M Na-acetate, and containing cAMP but not cGMP metabolic activity are pooled and used as a PDE stock solution for assaying PDE IV inhibitory activity.
CI-930 is included as an inhibitor of the cyclic GMP-sensitive, cyclic AMP-selectivePDE (PDE III) that is also present in the PDE IV stock solution when prepared as described above.
Consider `COC(=O)O/N=C(\C)c1ccc(OC)c(OC2CCCC2)c1` [Example 10, 1-[3-(cyclopentyloxy)-4-methoxyphenyl]ethanone (E)-O-(methoxycarbonyl)oxime], for which the IC50 (as a rule, the concentration that inhibits the measured activity by half) was 180 nM.

`CNC(=O)O/N=C(\C)c1ccc(OC)c(OC2CCCC2)c1` [Example 7, 1-[3-(Cyclopentyloxy)-4-methoxyphenyl]ethanone (E)-O-[(methylamino)carbonyl]oxime]: half-maximal inhibition (IC50) required 120 nM.

`COc1ccc(/C(Cc2ccccc2)=N/OC(N)=O)cc1OC1CCCC1` [Example 4, 1-(3-Cyclopentyloxy-4-methoxyphenyl)-2-phenylethanone (E)-O-(aminocarbonyl)oxime] displayed an IC50 of 47 nM.

Consider `CCCCOc1cc(/C(C)=N/OC(N)=O)ccc1OC` [Example 2, 1-[3-(Butoxy)-4-methoxyphenyl]ethanone (E)-O-(aminocarbonyl)oxime], for which the midpoint of inhibition, the IC50, lay at 90 nM.

`COc1ccc(/C(CC(C)C)=N/OC(N)=O)cc1OC1CCCC1` [Example 6, 1-[3-(Cyclopentyloxy)-4-methoxyphenyl]-3-methylbutanone (E)-O-(aminocarbonyl)oxime] had an IC50 of 130 nM.

`CCCCOc1cc(/C(C)=N/OC(=O)Oc2ccccc2)ccc1OC` [Example 12, 1-(3-butoxy-4-methoxyphenyl)ethanone (E)-O-(phenoxycarbonyl)oxime] registered an IC50 of 380 nM.

Consider `CCCCOc1cc(/C(C)=N/OC(=O)NC)ccc1OC` [Example 8, 1-(3-butoxy-4-methoxyphenyl)ethanone (E)-O-[(methylamino)carbonyl]oxime], for which the IC50 amounted to 200 nM.

The compound `COc1ccc(/C(C)=N/OC(N)=O)cc1OCCCOc1ccccc1` [Example 3, 1-[4-Methoxy-3-(3-phenoxypropoxy)phenyl]ethanone (E)-O-(aminocarbonyl)oxime] gave an IC50 of 410 nM.

`CCCCOc1cc(/C(C)=N/OC(=O)OC)ccc1OC` [Example 11, 1-(3-butoxy-4-methoxyphenyl)ethanone (E)-O-(methoxycarbonyl)oxime] registered an IC50 of 240 nM.

`COc1ccc(/C(C)=N/OC(N)=O)cc1OC1CCCC1` [Example 1, 1-[3-(Cyclopentyloxy)-4-methoxyphenyl]ethanone (E)-O-(aminocarbonyl)oxime] returned an IC50 of 48 nM.

As for `COc1ccc(/C(C)=N/OC(N)=O)cc1OC1CC2CCC1C2` (stereo not shown) [Example 13, 1-[3-(bicyclo[2.2.1]hept-2-yloxy)-4-methoxyphenyl]ethanone (E)-O-(aminocarbonyl)oxime], the IC50 was 67 nM.

In turn, `CCCCOc1cc(/C(C)=N/OC(=O)Nc2ccccc2)ccc1OC` [Example 9, 1-(3-butoxy-4-methoxyphenyl)ethanone (E)-O-[(phenylamino)carbonyl]oxime] returned an IC50 of 1500 nM.

The compound `COc1ccc(/C(CCc2ccccc2)=N/OC(N)=O)cc1OC1CCCC1` [Example 5, 1-(3-Cyclopentyloxy-4-methoxyphenyl)-3-phenylpropanone (E)-O-(aminocarbonyl)oxime] had an IC50 of 25 nM.
